Data from patent US7655620B2, “Use of one or more metal carriers to selectively kill mammalian cells” (Cancure Laboratories, LLC, priority 2005, dated 2010).
Entries after “also recorded” stand apart in the source; their conditions may differ.

What was measured:
[1] = test system: cancer cells; assay: Killing of cancer cells by dithiocarbamates in the absence or presence of cadmium/zinc; assay type: cell-based; conditions: for effectiveness in killing cancer cells in comparison to CCK3: 10-50 μM, absence or presence of 20 μM CdCl2/ZnCl2; for induction of cell death in the presence of cadmium or zinc: in vitro
Method: A large number of dithiocarbamates can be synthesized that, similar to 3-aminopropylpiperidine-1-carbodithioate (CCK3), contain a free amino group. Several of these compounds were synthesized and tested (in the range of 10-50 μM concentration) on cancer cells in the absence or presence of 20 μM CdCl2/ZnCl2 in comparison to CCK3, as follows. […] Similarly, 1-{[(3-aminopropyl)thio]carbonothiol}pyrrolidine-2-carboxilic acid.HCl salt (for structure see FIG. 1) was ineffective both in the absence and presence of cadmium/zinc. The last two compounds may be ineffective because the presence of carboxyl group may interfere with proper binding of cadmium and zinc to the molecule. 3-Aminopropylpyrrolidine-1-carbodithionate. […] From this list, it appears that not every free amino group-containing dithiocarbamate can effectively kill cells in the presence of cadmium and zinc. In some of these cases the metal atom may bind to the dithiocarbamate molecule too strongly (covalently), not allowing dissociation of the metal from the molecule once inside the cell. After comparison of the above compounds with the effects of CCK3, further experiments were principally carried out with PDC and CCK3. These are representative compounds that can be the most effectively and most economically used when either no further modification of the molecule is required (PDC) or when modification with a targeting moiety is required (CCK3).

[2] = test system: MDA-MB-231 cells; assay: [3H]thymidine DNA synthesis; assay type: cell-based, human; conditions: 60 min treatment, 10 μM cadmium, alone or in combination; [3H]thymidine during last 30 min
Method: (§1) Biochem. Biophys. Res. Commun. 213, 980-985]. […] Survival values obtained with untreated cells were considered 100%. […] Cancer Res. 47, 936-942].
(§2) MDA-MB-231 cells were cultured in Leibovitz's L-15 medium and 10% fetal bovine serum; the medium was changed 2 hours prior to treatments. For the treatments, cells were incubated in triplicate in 12-well plates. A typical experiment with these cells is illustrated in FIG. 3. The cells were untreated (FIG. 3A) or treated with 5 μM CCK3 (FIG. 3B), 10 μM cadmium (FIG. 3C), or 5 μM CCK3+10 μM cadmium (FIG. 3D) for 60 min in 10% serum-containing medium. […] In some experiments, cells were also incubated with [^3H]thymidine (1 μCi/ml) during the last 30 min of treatment to determine DNA synthesis. Cadmium and […] decreased DNA synthesis by 6 and 12%, while in combination they had 100% inhibitory effect.
(§3) The cells were cultured as described in Example 4. The cadmium/MT contained 5 cadmium atoms per one MT molecule while zinc/MT contained 5 zinc atoms per one MT molecule. […] Thus, in this cell line cadmium/MT+PDC killed cells more rapidly and efficiently compared to the same amount of zinc/MT+PDC.

[3] = test system: MDA-MB-231 human mammary gland adenocarcinoma cells; assay: Cell death judged from cell morphology (photographs); assay type: cell-based; conditions: 5 μM CCK3, 10 μM cadmium, alone or in combination; 60 min; 10% serum-containing medium
Method: as §2, §3

[4] = test system: cancer cells (CaOV-3, T47D and PC-3); assay: MTT assay / killing, statements over several cancer cell lines (metal/MTLP-25); assay type: cell-based, human; conditions: 20 μM CCK3, 100 μg/ml metal/MTLP-25, 24 hours; summary of Table 1
Method: The concentration range for these cadmium/MTLP-25 effects in some embodiments is 10-600 μg/ml, while in other embodiments, the concentration range is 50-200 μg/ml. Therapeutically effective concentrations of metal/MTLP-25 and CCK3 or PDC exert maximal effects on tumors without causing significant toxicity.
PC-3 human prostate adenocarcinoma cells were maintained and treated in Ham's F12K medium containing 7% fetal bovine serum. The CaOV-3 human ovarian adenocarcinoma cells were maintained and treated in Dulbecco's modified Eagle's medium containing 4 mM L-glutamine, 1.5 g/L sodium bicarbonate, 4.5 g/L glucose, 1 mM sodium pyruvate and 10% fetal bovine serum. T47D were maintained and treated in RPMI 1640 cell culture medium (see Gibco Catalogue) supplied with 2 mM L-glutamine, 10 mM Hepes, 1 mM sodium pyruvate, 4.5 g/L glucose, 1.5 g/L sodium bicarbonate, 0.2 I.U. bovine insulin/ml, and 10% fetal bovine serum. The cells were incubated in 96-well plates in the medium described above for 24 hours in the absence or presence of 20 μM CCK3 and/or 100 μg/ml of cadmium/MTLP-25 or 100 μg/ml of zinc/MTLP-25 as indicated in Table 1. After the treatment period, the MTT assay was used to determine the relative cell number of viable cells. Errors are expressed as S.D. (n=8 for each treatment).

[5] = test system: ZR-75-1 cells
Method: Biochem. Biophys. Res. Commun. […] Survival values obtained with untreated cells were considered 100%.
ZR-75-1 cells were cultured in triplicate in 12-well plates in the medium described in Example 4. The cadmium/MT contained 5 atoms of cadmium and 1 atom of zinc, while the zinc/MT contained 5 atoms of zinc and 1 atom of cadmium per one MT molecule. ZR-75-1 cells were incubated in 10% serum-containing medium for 24 h in the absence (FIG. 6A) or presence of 15 μM CCK3 (FIG. 6B), 60 μg/ml of cadmium/MT (FIG. 6C), 60 μg/ml of cadmium/MT+15 μM CCK3 (FIG. 6D), 240 μg/ml of zinc/MT (FIG. 6E), or 240 μg/ml of zinc/MT+15 μM CCK3 (FIG. 6F).
(§4) Cells were cultured in triplicate in 12-well plates as described in Example 4. The ratio of cadmium and zinc in cadmium/MT was 5:1 per one MT molecule. ZR-75-1 cells were incubated in 10% serum-containing medium for 8 hours in the absence (FIG. 7A) or presence of 20 μM CCK3 (FIG. 7B), 120 μg/ml of cadmium/MT (FIG. 7C), or 120 μg/ml of cadmium/MT+20 μM CCK3 (FIG. 7D).

[6] = test system: T47D human mammary gland ductal carcinoma cells; assay: Cell death judged from cell morphology (photographs); assay type: cell-based; conditions: 5 μM CCK3, 10 μM cadmium, alone or in combination; 4 hours; 10% serum-containing medium
[7] = test system: ZR-75-1 human breast cancer cells; assay: as above; assay type: cell-based
Method: ZR-75-1 cells were cultured in triplicate in 12-well plates in the medium described in Example 4. The cadmium/MT contained 5 atoms of cadmium and 1 atom of zinc, while the zinc/MT contained 5 atoms of zinc and 1 atom of cadmium per one MT molecule. ZR-75-1 cells were incubated in 10% serum-containing medium for 24 h in the absence (FIG. […] 6D), 240 μg/ml of zinc/MT (FIG. […] 6F).
as §4

[8] = test system: MCF-7 cells; assay: as above; assay type: cell-based, human; conditions: 20 μM CCK3, 120 μg/ml cadmium/MT, alone or combined; 8 hours; 10% serum
Method: (§5) The cells were cultured as described in Example 4.

[9] = test system: MCF-7 cells; assay: Trypan blue exclusion assay; assay type: cell-based, human; conditions: 20 μM CCK3, 120 μg/ml cadmium/MT, alone or combined; 8 hours
Method: as §1, §5

[10] = test system: T47D cells; assay: [3H]thymidine DNA synthesis; assay type: cell-based, human; conditions: 5 μM CCK3, 10 μM cadmium, alone or in combination; 4 hours; [3H]thymidine during last 30 min
Method: as §1
T47D Cells were cultured in RPMI 1640 cell culture medium (see Gibco Catalogue) supplied with 2 mM L-glutamine, 10 mM Hepes, 1 mM sodium pyruvate, 4.5 g/L glucose, 1.5 g/L sodium bicarbonate, 0.2 I.U. bovine insulin/ml, and 10% fetal bovine serum. The medium was changed for fresh 10% serum-containing medium 2 hours prior to treatments. For the treatments, the cells were incubated in triplicate in 12-well plates. The cells were untreated (FIG. 2A) or treated with 5 μM CCK3 alone (FIG. 2B), 10 μM cadmium alone (FIG. 2C), or 5 μM CCK3 and 10 μM cadmium in combination (FIG. 2D) for 4 hours in 10% serum-containing medium when the photographs were taken. […] Finally, cells were incubated with [^3H]thymidine (1 μCi/ml) during the last 30 min of treatment to determine DNA synthesis. Cadmium and CCK3 decreased DNA synthesis by 13 and 8% respectively, while in combination they had practically 100% inhibitory effect.

[11] = test system: various cancer and human normal 966 SK skin fibroblasts; assay: MTT assay, statements over all cell lines of Example 6; assay type: cell-based; conditions: CCK3 10 μM, cadmium/MT 60 μg/ml, alone or combined, 24 hour
Method: as §1
MCF-7 estrogen receptor positive human breast carcinoma cells and CaOV-3 human ovarian adenocarcinoma cells were grown in Dulbecco's modified Eagle's medium containing 4 mM L-glutamine, 1.5 g/L sodium bicarbonate, 4.5 g/L glucose, 1 mM sodium pyruvate and 10% fetal bovine serum. T47D human mammary gland ductal carcinoma cells and ZR-75-1 estrogen receptor positive human mammary gland ductal carcinoma cells were cultured in RPMI 1640 medium as indicated above. MB-468 and MB-231 human mammary gland adenocarcinoma cells were maintained in Leibovitz's L-15 medium as described above. AN3CA human endometrial adenocarcinoma and 966 SK normal human skin fibroblasts were cultured in Eagles's minimum essential medium supplemented with 0.1 mM non-essential amino acids and 10% fetal bovine serum. The preparation of MT (from Sigma-Aldrich, Inc.) used in this experiment contained about 4 ions of cadmium and only about 0.3 ions of zinc per MT molecule. […] The MTT assay was used for the determination of relative cell numbers. Data are illustrated in FIG. 4 as rates of growth inhibition (maximum inhibition=100%) in comparison to values without treatment. The error bars indicate S.D. (n=8). […]

Cl.NCCCSC(=S)N1CCCC1C(=O)O (stereo not shown) [1-{[(3-aminopropyl)thio]carbonothiol}pyrrolidine-2-carboxilic acid.HCl salt]
effectiveness in killing cancer cells in comparison to CCK3 [1]: ineffective

S=C(S)N1CCCC1 [PDC, pyrrolidinecarbodithioic acid, reference compound]
decrease of DNA synthesis [2]: 12%

NCCCSC(=S)N1CCCCC1C(=O)O (stereo not shown) [1-{[(3-aminopropyl)thio]carbonothioyl}piperidine-2-carboxilic acid]
effectiveness in killing cancer cells in comparison to CCK3 [1]: not effective at all

CCN(CC)C(=S)S [diethyldithocarbamate, reference compound]
induction of cell death in the presence of cadmium or zinc [1]: as effective as CCK3

Cl.NCCCSC(=S)N1CCCCC1 [CCK3, 3-aminopropylpiperidine-1-carbodithioate.HCl salt]
cell death indicated by cell morphology (cell rounding) [3]: no effects on cell morphology | reduction of the viability of cancer cells [4]: no effects | cells killed (trypan blue exclusion assay) ([5]; 15 μM CCK3, 60 μg/ml cadmium/MT, 240 μg/ml zinc/MT, alone or MT+CCK3, 24 h): practically no effects | cells with decreased viability / killed (trypan blue exclusion assay) ([5]; 20 μM CCK3, 120 μg/ml cadmium/MT, alone or combined, 8 hours): 16% | cell death indicated by cell morphology (cell rounding) [6]: no effects on cell morphology | cell death indicated by cell morphology ([7]; 20 μM CCK3, 120 μg/ml cadmium/MT, alone or combined, 8 hours, 10% serum): failed to significantly alter cell morphology | cell death indicated by cell morphology (FIG. 6 legend) ([7]; CCK3 10 μM, cadmium/MT 60 μg/ml, zinc/MT 240 μg/ml, alone or MT+CCK3, 24 hours): failed to significantly alter cell morphology | cell death indicated by cell morphology [8]: failed to significantly alter cell morphology | cells killed (trypan blue exclusion assay) [9]: practically no effects on viability | decrease of DNA synthesis [10]: 8% | induction of cell death in the presence of cadmium or zinc [1]: retains its ability to carry metals inside the cells resulting in cell death; also recorded: killed the cells | cell viability (FIG. 4) [11]: significantly smaller than the combined effects

Cl.NCCCSC(=S)N1CCCC1 [3-Aminopropylpyrrolidine-1-carbodithionate. HCl salt]
effectiveness in killing cancer cells in comparison to CCK3 [1]: significantly less effective than CCK3

C[N+](C)(C)CCOC(=S)SCCCN.[Cl-] [2({[(3-aminopropyl)thio]carbonothionyl}oxy)-N,N,N-trimethylethanolamine-chloride]
effectiveness in killing cancer cells in comparison to CCK3 [1]: less effective than CCK3

cadmium
cell death indicated by cell morphology (cell rounding) [3]: no effects on cell morphology | cell death indicated by cell morphology (cell rounding) [6]: no effects on cell morphology | decrease of DNA synthesis [2]: 6% | decrease of DNA synthesis [10]: 13%
